Reference: patent US9226907B2 (priority 2008, dated 2016)

Tests used:
clinical = settings: in vivo
Source text: Hydrocodone is structurally similar to other opioid analgesics (hydromorphone and oxycodone).

[1] = higher drug concentrations associated with overdosage (280 μg/mL); cited from earlier work
[2] = in vivo

Compound: CC(=O)Nc1ccc(O)cc1 [acetaminophen, 4′-hydroxyacetanilide]
- Effect of food on Cmax or AUC (clinical; human): no effect on Cmax or AUC
- Time by which steady state was achieved (clinical; human): ≤ 24 h
- Vd (clinical; human): 78 to 245 L
- Cmax and AUC versus dose (clinical): proportional to dose
- Bound to plasma proteins [1]: 15-21%
- Variability in exposures (Cmax and AUC) ([2]; human): not affected by ethanol coadministration
- AUC with different ethanol concentrations versus 0% ethanol [2]: equivalent to that of Vicodin CR alone
